Data: the supplement of paper PMC10307832

Tests used:
Experiment in all cases: relative viability (nuclei count vs DMSO), 5 days (fraction); higher = more cells survive
Imatinib + Phenformin = compound: Cc1ccc(NC(=O)c2ccc(CN3CCN(C)CC3)cc2)cc1Nc1nccc(-c2cccnc2)n1 [Imatinib] + N=C(N)NC(=N)NCCc1ccccc1 [Phenformin] (partner 250 µM)
In short: (§1)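 Lung cancer cell lines were seeded in 1536-well plates and dosed by pin tool the next day, with either a single drug or a fixed anchor-drug dose combined with five library-drug doses (not always all listed) spaced in √10 steps. Five days later, one step fixed the cells and stained their nuclei (final 0.05% Triton X-100, 1% formaldehyde, 1 ug/ml Hoechst), and nuclei were counted on 4× images. Relative viability is the nuclei count in treated wells divided by the count in vehicle wells, and each value is the median of duplicate plates.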

Imatinib + Vorinostat = compound: Cc1ccc(NC(=O)c2ccc(CN3CCN(C)CC3)cc2)cc1Nc1nccc(-c2cccnc2)n1 [Imatinib] + O=C(CCCCCCC(=O)Nc1ccccc1)NO [Vorinostat] (partner 1 µM)
In short: as §1

Imatinib + Olaparib = compound: Cc1ccc(NC(=O)c2ccc(CN3CCN(C)CC3)cc2)cc1Nc1nccc(-c2cccnc2)n1 [Imatinib] + O=C(c1cc(Cc2n[nH]c(=O)c3ccccc23)ccc1F)N1CCN(C(=O)C2CC2)CC1 [Olaparib] (partner 8 µM)
In short: as §1

Imatinib + Decitabine = compound: Cc1ccc(NC(=O)c2ccc(CN3CCN(C)CC3)cc2)cc1Nc1nccc(-c2cccnc2)n1 [Imatinib] + Nc1ncn([C@H]2C[C@H](O)[C@@H](CO)O2)c(=O)n1 [Decitabine] (partner 2 µM)
In short: as §1

Cell Line | relative viability (Imatinib + Phenformin; first compound 0.02 µM) | relative viability (Imatinib + Phenformin; first compound 0.2 µM) | relative viability (Imatinib + Phenformin; first compound 0.6325 µM) | relative viability (Imatinib + Phenformin; first compound 2 µM) | relative viability (Imatinib + Vorinostat; first compound 0.02 µM) | relative viability (Imatinib + Vorinostat; first compound 0.2 µM) | relative viability (Imatinib + Vorinostat; first compound 0.6325 µM) | relative viability (Imatinib + Vorinostat; first compound 2 µM) | relative viability (Imatinib + Olaparib; first compound 0.02 µM) | relative viability (Imatinib + Olaparib; first compound 0.06325 µM) | relative viability (Imatinib + Olaparib; first compound 0.2 µM) | relative viability (Imatinib + Olaparib; first compound 0.6325 µM) | relative viability (Imatinib + Olaparib; first compound 2 µM) | relative viability (Imatinib + Decitabine; first compound 0.02 µM) | relative viability (Imatinib + Decitabine; first compound 0.2 µM) | relative viability (Imatinib + Decitabine; first compound 0.6325 µM) | relative viability (Imatinib + Decitabine; first compound 2 µM) | relative viability (Imatinib + Phenformin; first compound 0.06325 µM) | relative viability (Imatinib + Vorinostat; first compound 0.06325 µM) | relative viability (Imatinib + Decitabine; first compound 0.06325 µM)
HOP-62 | 0.77 | 0.858 | 0.613 | 0.66 | 0.884 | 0.83 | 0.562 | 0.68 | 0.408 | 0.478 | 0.456 | 0.498 | 0.372 | 0.199 | 0.25 | 0.232 | 0.211 |  |  | 
LC-2-ad | 0.626 |  | 0.603 | 0.557 | 0.73 | 0.754 | 0.707 | 0.693 | 0.756 |  | 0.751 | 0.761 | 0.694 | 0.816 | 0.948 | 0.824 | 0.759 | 0.603 |  | 
LCLC-97TM1 | 0.409 | 0.458 | 0.498 | 0.437 | 0.798 | 0.959 | 0.855 | 0.767 | 0.539 |  | 0.269 | 0.419 | 0.33 | 0.208 | 0.253 | 0.216 | 0.226 |  |  | 
LCLC-103H | 0.342 | 0.347 | 0.316 | 0.255 | 0.768 | 0.814 | 0.766 | 0.779 | 0.776 | 0.773 | 0.834 | 0.694 |  | 0.717 | 0.767 | 0.74 | 0.754 | 0.325 | 0.584 | 0.741
LK-2 | 0.447 | 0.378 | 0.439 | 0.46 | 0.323 | 0.286 |  | 0.159 | 0.725 | 0.629 | 0.711 |  | 0.92 | 0.336 | 0.237 |  | 0.183 | 0.413 | 0.246 | 0.323
LOU-NH91 | 0.679 | 0.675 | 0.679 | 0.665 | 0.948 | 0.938 | 0.885 | 0.895 | 1.04 | 0.982 |  | 0.879 | 0.894 | 0.793 | 0.795 | 0.813 | 0.767 | 0.693 | 1.08 | 0.814
LU99A | 0.887 | 0.77 | 0.899 | 0.785 | 0.564 | 0.471 | 0.559 | 0.564 | 0.272 | 0.254 | 0.235 | 0.29 | 0.274 | 0.986 | 0.824 | 0.812 | 0.903 | 0.923 | 0.455 | 0.827
LXF-289 | 0.531 | 0.552 | 0.51 | 0.502 | 0.782 | 0.798 | 0.736 | 0.783 | 1.1 |  | 1.35 |  | 1.13 | 0.387 | 0.407 | 0.391 | 0.405 | 0.491 |  | 
NCI-H23 | 0.863 | 0.768 | 0.764 | 0.731 | 0.686 | 0.578 | 0.453 | 0.488 | 0.384 | 0.287 | 0.32 | 0.376 | 0.32 | 0.319 | 0.299 | 0.287 | 0.355 | 0.84 | 0.669 | 0.31
NCI-H322M | 0.909 | 0.819 | 0.679 | 0.795 | 0.889 | 0.928 | 0.775 | 0.876 | 0.821 | 0.857 | 0.734 | 0.678 | 0.807 | 0.751 | 0.661 | 0.655 | 0.756 | 0.839 | 0.873 | 0.692
NCI-H358 | 0.317 | 0.418 | 0.292 | 0.335 | 0.863 | 0.642 | 0.692 | 0.729 | 0.733 | 0.699 | 0.613 | 0.549 | 0.556 | 0.205 | 0.214 | 0.207 | 0.202 | 0.349 | 0.83 | 0.168
NCI-H441 | 0.755 | 1.02 | 0.958 | 0.879 | 0.96 | 0.893 | 0.858 | 0.737 | 0.577 | 0.793 | 0.554 | 0.6 | 0.635 | 0.252 | 0.249 | 0.26 | 0.268 | 0.747 | 1.07 | 0.234
NCI-H460 | 0.621 | 0.557 | 0.443 | 0.478 | 1.4 | 1.09 | 0.705 | 0.735 | 0.515 | 0.431 | 0.402 | 0.462 | 0.396 | 0.603 | 0.63 | 0.511 | 0.575 | 0.555 | 0.636 | 0.333
NCI-H520 | 0.695 | 0.545 | 0.568 | 0.497 | 0.7 | 0.662 | 0.922 | 0.729 | 0.368 | 0.356 | 0.305 | 0.301 | 0.371 | 0.531 | 0.532 | 0.508 | 0.487 | 0.823 |  | 0.514
NCI-H596 | 0.73 | 0.816 | 0.693 | 0.834 | 0.648 | 0.59 | 0.586 | 0.623 | 0.648 | 0.811 | 0.681 | 0.665 | 0.747 | 1.12 | 1.17 |  | 0.971 | 0.663 | 0.481 | 1.01
NCI-H1299 |  |  |  |  |  |  |  |  | 0.987 | 0.948 | 1.01 | 0.983 | 0.97 |  |  |  |  |  |  | 
NCI-H1563 | 0.634 | 0.658 | 0.607 | 0.625 |  |  |  |  |  |  |  |  |  |  |  |  |  | 0.648 |  | 
NCI-H1648 |  |  |  |  | 0.503 | 0.422 | 0.268 | 0.476 | 0.958 | 0.633 | 0.971 | 0.307 | 0.776 | 0.442 | 0.448 | 0.393 | 0.456 |  | 0.272 | 0.478
NCI-H1792 | 0.262 | 0.233 | 0.235 | 0.35 |  |  |  |  | 0.477 | 0.481 | 0.225 |  | 0.33 | 0.573 | 0.576 |  | 0.449 | 0.237 |  | 0.496
NCI-H2228 | 0.335 | 0.268 | 0.277 | 0.272 | 0.677 | 0.724 | 0.602 | 1 | 0.597 | 1.13 | 0.684 | 0.681 | 0.542 |  |  |  |  |  | 0.692 | 
